Earlier results in patent US20120269803A1, “SUBSTITUTED BENZOSULPHONAMIDES” (BAYER INTELLECTUAL PROPERTY GMBH, priority 2009, published 2012).

Legend:
MEK1/2 = MEK1/2 inhibitor, literature [17]
colon cancer = settings: oral treatment, mouse models, literature [18]
[1] = phase I/II clinical trials in humans, literature [19]

In the case of O=C(NOCC1CC1)c1ccc(F)c(F)c1Nc1ccc(I)cc1Cl [PD184352], the IC50 (MEK1/2) is listed as “low nanomolar range”, the “colon cancer growth in vivo” value (colon cancer) is listed as “inhibit colon cancer growth in vivo” and the clinical efficacy [1] is listed as “insufficient efficacy”.
